{"source": "patent US7799821B2", "about": "“Therapeutic compounds” (Allergan, Inc., priority 2004, dated 2010)", "key": {"hFP": {"molecular_target": "T1, hFP (Homo sapiens, UniProt P43088)", "T1 construct": "expressed in transfected cells; host or cells: HEK-293(EBNA)", "T1 sequence (P43088 whole entry)": "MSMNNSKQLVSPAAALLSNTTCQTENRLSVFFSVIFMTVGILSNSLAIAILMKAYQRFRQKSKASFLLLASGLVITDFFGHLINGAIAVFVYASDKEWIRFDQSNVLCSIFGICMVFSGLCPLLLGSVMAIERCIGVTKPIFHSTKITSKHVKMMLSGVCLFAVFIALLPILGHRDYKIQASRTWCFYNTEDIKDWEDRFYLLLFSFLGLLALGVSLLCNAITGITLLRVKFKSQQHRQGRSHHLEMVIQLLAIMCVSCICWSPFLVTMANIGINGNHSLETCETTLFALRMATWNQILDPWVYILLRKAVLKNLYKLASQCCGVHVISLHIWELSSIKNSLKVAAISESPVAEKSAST", "test": "FLIPR calcium signal, hFP", "type": "cell-based", "conditions": "Table 3, third part", "protocol": "(§1) HEK-293(EBNA) cells, stably expressing one type or subtype of recombinant human prostaglandin receptors (prostaglandin receptors expressed: hDP/Gqs5; hEP1; hEP2/Gqs5; hEP3A/Gqi5; hEP4/Gqs5; hFP; hIP; hTP), were cultured in 100 mm culture dishes in high-glucose DMEM medium containing 10% fetal bovine serum, 2 mM 1-glutamine, 250 μg/ml geneticin (G418) and 200 μg/ml hygromycin B as selection markers, and 100 units/ml penicillin G, 100 μg/ml streptomycin and 0.25 μg/ml amphotericin B. • (b) Calcium Signal Studies on the FLIPR™\n(§2) Cells were seeded at a density of 5×10^4 cells per well in Biocoat® Poly-D-lysine-coated black-wall, clear-bottom 96-well plates (Becton-Dickinson) and allowed to attach overnight in an incubator at 37° C. Cells were then washed two times with HBSS-HEPES buffer (Hanks Balanced Salt Solution without bicarbonate and phenol red, 20 mM HEPES, pH 7.4) using a Denley Cellwash plate washer (Labsystems). After 45 minutes of dye-loading in the dark, using the calcium-sensitive dye Fluo-4 AM at a final concentration of 2 μM, plates were washed four times with HBSS-HEPES buffer to remove excess dye leaving 100 μl in each well. Plates were re-equilibrated to 37° C. for a few minutes.\n(§3) Cells were excited with an Argon laser at 488 nm, and emission was measured through a 510-570 nm bandwidth emission filter (FLIPR™, Molecular Devices, Sunnyvale, Calif.). Drug solution was added in a 50 μl volume to each well to give the desired final concentration. The peak increase in fluorescence intensity was recorded for each well. On each plate, four wells each served as negative (HBSS-HEPES buffer) and positive controls (standard agonists: BW245C (hDP); PGE2 (hEP1; hEP2/Gqs5; hEP3A/Gqi5; hEP4/Gqs5); PGF2α (hFP); carbacyclin (hIP); U-46619 (hTP), depending on receptor). The peak fluorescence change in each drug-containing well was then expressed relative to the controls.\nCompounds were tested in a high-throughput (HTS) or concentration-response (CoRe) format. […]"}, "hEP1": {"molecular_target": "T2, hEP1 (Homo sapiens, UniProt P34995)", "T2 construct": "expressed in transfected cells; host or cells: HEK-293(EBNA)", "T2 sequence (P34995 1-402)": "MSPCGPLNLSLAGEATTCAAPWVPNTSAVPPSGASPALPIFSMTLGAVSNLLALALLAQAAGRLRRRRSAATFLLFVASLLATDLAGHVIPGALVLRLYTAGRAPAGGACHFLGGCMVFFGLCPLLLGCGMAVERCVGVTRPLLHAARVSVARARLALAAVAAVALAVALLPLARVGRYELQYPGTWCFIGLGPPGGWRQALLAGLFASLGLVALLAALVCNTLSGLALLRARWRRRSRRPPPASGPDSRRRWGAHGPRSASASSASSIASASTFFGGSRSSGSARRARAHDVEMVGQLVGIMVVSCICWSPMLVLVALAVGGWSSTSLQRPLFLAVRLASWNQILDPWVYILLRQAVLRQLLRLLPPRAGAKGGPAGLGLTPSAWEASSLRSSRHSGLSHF", "test": "FLIPR calcium signal, hEP1", "type": "cell-based", "conditions": "Table 3, third part", "protocol": "as §1, §2, §3\n(§4) Compounds were tested in a high-throughput (HTS) or concentration-response (CoRe) format. In the HTS format, forty-four compounds per plate were examined in duplicates at a concentration of 10^−5 M. To generate concentration-response curves, four compounds per plate were tested in duplicates in a concentration range between 10^−5 and 10^−11 M. The duplicate values were averaged. In either, HTS or CoRe format each compound was tested on at least 3 separate plates using cells from different passages to give an n≧3."}, "hEP4/Gqs5": {"molecular_target": "T3, hEP4/Gqs5 (Homo sapiens, UniProt P35408)", "T3 construct": "expressed in transfected cells; host or cells: HEK-293(EBNA)", "T3 sequence (P35408 whole entry)": "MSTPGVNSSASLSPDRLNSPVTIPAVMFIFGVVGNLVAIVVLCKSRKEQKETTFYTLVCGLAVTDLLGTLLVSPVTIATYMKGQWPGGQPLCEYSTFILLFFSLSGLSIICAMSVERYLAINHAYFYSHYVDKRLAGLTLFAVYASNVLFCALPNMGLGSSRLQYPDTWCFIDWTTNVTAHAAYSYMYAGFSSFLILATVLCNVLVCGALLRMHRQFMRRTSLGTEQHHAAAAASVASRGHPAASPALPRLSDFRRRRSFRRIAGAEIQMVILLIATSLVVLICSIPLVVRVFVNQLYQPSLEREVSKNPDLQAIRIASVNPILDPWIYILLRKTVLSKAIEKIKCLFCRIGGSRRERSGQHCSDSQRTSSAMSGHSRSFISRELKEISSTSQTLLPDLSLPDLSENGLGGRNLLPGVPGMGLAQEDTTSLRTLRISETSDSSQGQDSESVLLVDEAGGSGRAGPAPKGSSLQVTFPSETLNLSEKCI", "test": "FLIPR calcium signal, hEP4", "type": "cell-based", "conditions": "Table 3, third part", "procedure,_shortened": "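HEK-293(EBNA) cells stably expressing the recombinant human receptor were loaded with 2 μM Fluo-4 AM for 45 min and read on FLIPR at 37° C in HBSS-HEPES pH 7.4. Peak fluorescence rise was expressed relative to buffer and standard agonist controls (BW245C, PGE2 or U-46619 by receptor); compounds were run 10^−5 to 10^−11 M in duplicate, n≧3.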"}, "hTP": {"molecular_target": "T4, hTP (Homo sapiens, UniProt P21731)", "T4 construct": "expressed in transfected cells; host or cells: HEK-293(EBNA)", "T4 sequence (P21731 1-343)": "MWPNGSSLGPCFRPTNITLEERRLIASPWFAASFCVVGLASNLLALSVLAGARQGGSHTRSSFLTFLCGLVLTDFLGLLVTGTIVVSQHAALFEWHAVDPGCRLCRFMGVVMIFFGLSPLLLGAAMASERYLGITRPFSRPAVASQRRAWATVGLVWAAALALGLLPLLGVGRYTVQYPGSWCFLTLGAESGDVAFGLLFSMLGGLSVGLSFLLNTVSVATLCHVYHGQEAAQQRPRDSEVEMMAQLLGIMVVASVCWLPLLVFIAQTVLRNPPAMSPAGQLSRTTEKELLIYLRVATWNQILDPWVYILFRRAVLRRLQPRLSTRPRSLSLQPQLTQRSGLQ", "test": "FLIPR calcium signal, hTP", "type": "cell-based", "conditions": "Table 3, third part", "protocol": "as §1, §2, §3, §4"}, "hIP": {"molecular_target": "T5, hIP (Homo sapiens, UniProt P43119)", "T5 construct": "expressed in transfected cells; host or cells: HEK-293(EBNA)", "T5 sequence (P43119 whole entry)": "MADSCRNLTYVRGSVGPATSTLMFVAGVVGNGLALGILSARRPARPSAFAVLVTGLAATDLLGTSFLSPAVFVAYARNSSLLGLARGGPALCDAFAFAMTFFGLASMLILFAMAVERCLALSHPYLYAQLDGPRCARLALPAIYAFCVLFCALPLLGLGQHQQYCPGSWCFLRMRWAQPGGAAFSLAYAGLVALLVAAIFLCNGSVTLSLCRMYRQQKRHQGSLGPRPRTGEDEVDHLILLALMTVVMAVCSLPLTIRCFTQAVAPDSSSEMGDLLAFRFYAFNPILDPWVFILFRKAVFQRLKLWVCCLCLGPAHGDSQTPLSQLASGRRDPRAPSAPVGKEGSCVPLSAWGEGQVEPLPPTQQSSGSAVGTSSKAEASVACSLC", "test": "FLIPR calcium signal, hIP", "type": "cell-based", "conditions": "Table 3, third part", "protocol": "as §1, §2, §3, §4"}, "rabbits": {"system": "rabbits", "test": "Ocular surface hyperemia, rabbits", "type": "in vivo", "conditions": "score", "protocol": "(§5) Ocular surface hyperemia was visually assessed and scored according to a system typically used clinically.\n(§6) Ocular surface hyperemia was evaluated at the same time points as intraocular pressure measurement. It should be noted that untreated dog eyes frequently have a pink/red tone. Thus, values of trace or even mild are not necessarily out of the normal range. Similar tests were used to determine ocular surface hyperemia on monkeys and rabbits."}, "monkeys": {"system": "monkeys", "test": "Intraocular pressure (IOP) in monkeys", "type": "in vivo"}, "Beagle dogs [1]": {"system": "Beagle dogs", "test": "Intraocular pressure (IOP) in dogs, pneumatonometry", "type": "in vivo", "conditions": "topical", "protocol": "(§7) Intraocular pressure studies in dogs involved pneumatonometry performed in conscious, Beagle dogs of both sexes (10-15 kg). The animals remained conscious throughout the study and were gently restrained by hand. Drugs were administered topically to one eye as a 25 μL volume drop, the other eye received 25 μL vehicle (0.1% (w/v) polysorbate 80; 10 mM TRIS) as a control. Proparacaine (0.1% w/v) was used for corneal anesthesia during tonometry. Intraocular pressure was determined just before drug administration and at 2, 4 and 6 hr thereafter on each day of the 5 day study. Drug was administered immediately after the first IOP reading.\nas §7, with “(0.1%” for “(0.1% (w/v)”, “80:10” for “80; 10”, “(0.1%)” for “(0.1% w/v)”"}, "Beagle dogs [2]": {"system": "Beagle dogs", "test": "Ocular surface hyperemia, dogs", "type": "in vivo", "set-up": "key: 0.5: <1 trace; 1 mild; 2: moderate; 3: severe", "conditions": "score", "protocol": "as §5, §6"}}}
{"smiles": "CCCCCC(O)c1ccc([C@@H]2[C@@H](C/C=C\\CCCC(=O)O)[C@H](Cl)C[C@@H]2Cl)cc1", "note": "(stereo partly drawn)", "values": [{"measurement": "Ca2+ Signal-EC50 (nM) FP", "setting": "hFP", "result": "not active"}, {"measurement": "Ca2+ Signal-EC50 (nM) EP1", "setting": "hEP1", "result": "not active"}, {"measurement": "EC50", "setting": "hEP4/Gqs5; read-out: Ca2+ Signal-EC50 (nM) EP4", "result": 10000, "unit": "nM"}, {"measurement": "Ca2+ Signal-EC50 (nM) TP", "setting": "hTP", "result": "not active"}, {"measurement": "Ca2+ Signal-EC50 (nM) IP", "setting": "hIP", "result": "not active"}]}
{"smiles": "CCCCCC(O)c1ccc([C@@H]2[C@@H](C/C=C\\CCCC(=O)O)[C@H](Cl)C[C@H]2Cl)cc1", "note": "(stereo partly drawn)", "values": [{"measurement": "Ca2+ Signal-EC50 (nM) FP", "setting": "hFP", "result": "not active"}, {"measurement": "Ca2+ Signal-EC50 (nM) EP1", "setting": "hEP1", "result": "not active"}, {"measurement": "Ca2+ Signal-EC50 (nM) EP4", "setting": "hEP4/Gqs5", "result": "not active"}, {"measurement": "Ca2+ Signal-EC50 (nM) TP", "setting": "hTP", "result": "not active"}, {"measurement": "Ca2+ Signal-EC50 (nM) IP", "setting": "hIP", "result": "not active"}]}
{"smiles": "CC(C)OC(=O)CCCCCC[C@@H]1[C@@H](c2ccc(C(C)(C)C)cc2)[C@H](O)C[C@H]1Cl", "values": [{"measurement": "RABBIT Max. hyperemia", "setting": "rabbits; Conc. 0.01% g/100 mL", "result": 0.1}, {"measurement": "MONKEY Max. ΔIOP (mm Hg)", "setting": "monkeys; Conc. 0.01% g/100 mL", "result": 8, "unit": "mm Hg"}]}
{"smiles": "CC(C)OC(=O)CCC/C=C\\C[C@@H]1[C@@H](c2ccc(C(O)C3CCCCC3)cc2)[C@H](O)C[C@H]1Cl", "note": "(stereo partly drawn)", "values": [{"measurement": "DOG Max. ΔIOP (mm Hg)", "setting": "Beagle dogs [1]; Conc. 0.01% g/100 mL", "result": "−4", "unit": "mm Hg"}, {"measurement": "DOG Max. hyperemia", "setting": "Beagle dogs [2]; Conc. 0.01% g/100 mL", "result": 0.6}, {"measurement": "MONKEY Max. ΔIOP (mm Hg)", "setting": "monkeys; Conc. 0.01% g/100 mL", "result": 5, "unit": "mm Hg"}]}
{"smiles": "O=C(O)CCC/C=C\\C[C@@H]1[C@@H](c2ccc3c(c2)CCC3O)[C@H](O)C[C@H]1Cl", "note": "(stereo partly drawn)", "values": [{"measurement": "DOG Max. ΔIOP (mm Hg)", "setting": "Beagle dogs [1]; Conc. 0.30% g/100 mL", "result": "−7", "unit": "mm Hg"}, {"measurement": "DOG Max. hyperemia", "setting": "Beagle dogs [2]; Conc. 0.30% g/100 mL", "result": 1}, {"measurement": "MONKEY Max. ΔIOP (mm Hg)", "setting": "monkeys; Conc. 0.30% g/100 mL", "result": 7, "unit": "mm Hg"}]}
{"smiles": "CC(C)OC(=O)CCC/C=C\\C[C@@H]1[C@@H](c2ccc3c(c2)CCC3O)[C@H](O)C[C@H]1Cl", "note": "(stereo partly drawn)", "values": [{"measurement": "DOG Max. ΔIOP (mm Hg)", "setting": "Beagle dogs [1]; Conc. 0.10% (0.1%) g/100 mL", "result": "−12", "unit": "mm Hg"}, {"measurement": "RABBIT Max. hyperemia", "setting": "rabbits; Conc. 0.10% (0.1%) g/100 mL", "result": 0.25}]}
{"smiles": "CC(C)OC(=O)CCC/C=C\\C[C@@H]1[C@@H](c2ccc(C(C)(C)CO)cc2)[C@H](O)C[C@H]1Cl", "values": [{"measurement": "DOG Max. ΔIOP (mm Hg)", "setting": "Beagle dogs [1]; Conc. 0.10% (0.1%) g/100 mL", "result": "−5", "unit": "mm Hg"}, {"measurement": "DOG Max. hyperemia", "setting": "Beagle dogs [2]; Conc. 0.10% (0.1%) g/100 mL", "result": 0.7}, {"measurement": "RABBIT Max. hyperemia", "setting": "rabbits; Conc. 0.10% (0.1%) g/100 mL", "result": 0.1}, {"measurement": "MONKEY Max. ΔIOP (mm Hg)", "setting": "monkeys; Conc. 0.10% (0.1%) g/100 mL", "result": 6, "unit": "mm Hg"}]}
